In patent US20090023697A1, “ANALGESIA METHOD” (Vernalis (R&D) Limited, priority 2003, published 2009):

Key:
[1] = tested on: rats; assay: Tail flick latency (TFL) response to ip morphine: effect of alphadolone on established morphine tolerance
Description: An observer unaware of the nature of this treatment, saline or alphadolone, made the TFL measurements.
The TFL responses on day 1 and day 3 were combined for drug treatment and expressed as means SEM. These values were compared to see if tolerance occurred and whether co administration of alphadolone caused reversal of the tolerance effect.

[2] = tested on: mice; conditions: cited from earlier work
[3] = tested on: male Wistar rats; assay: Rotarod running test to assess sedation after neurosteroid sustained release emulsions; conditions: sc sustained release emulsion; for sedation (rotarod run time) at 1 hour after injection: normal run time 120 s
[4] = given ip or intragastrically; cited from earlier work
[5] = in vivo; cited from earlier work
[6] = alphadolone alone; cited from earlier work
[7] = tested on: male Wistar rats; assay: Tail flick latency (TFL) response to ip morphine: effect of sustained release neurosteroid on development of morphine tolerance
[8] = dose of alphadolone used for tolerance reversal (10 mg/kg); cited from earlier work
[9] = tested on: rats; assay: Electrical current threshold (ECT) test of nociceptive threshold in the tail after alphadolone sustained release emulsion; conditions: 250 mg/kg alphadolone acetate sc in slow release emulsion
[10] = alphadolone 250 mg/kg, alphaxalone 80 mg/kg

CN1CC[C@]23c4c5ccc(O)c4O[C@H]2[C@@H](O)C=C[C@H]3[C@H]1C5 [morphine]
tail flick latency response, day 1 (pre tolerance) ([1]; immediate release morphine 6.4 mg/kg ip, both groups, n=9): approximately 80 % MPE

CC(=O)C1CCC2C3CC=C4CC(OS(=O)(=O)O)CCC4(C)C3CCC12C (centres unmarked) [pregnenolone sulphate]
prevention of morphine tolerance [2]: positive results

dehydroepiandrosterone sulphate
prevention of morphine tolerance [2]: positive results

CC(=O)[C@H]1CC[C@H]2[C@@H]3CC[C@H]4C[C@H](O)CC[C@]4(C)[C@H]3C(=O)C[C@]12C [alphaxalone]
sedation (rotarod run time) at 1 hour after injection [3, 10]: significantly greater than that caused by alphadolone | duration of significant sedative effects (rotarod) ([3]; alphaxalone 80 mg/kg): four | antinociception [4]: no antinociception | sedation [4]: causes sedation | potency as an anaesthetic compared with alphadolone [5]: three

CC(=O)OCC(=O)[C@H]1CC[C@H]2[C@@H]3CC[C@H]4C[C@H](O)CC[C@]4(C)[C@H]3C(=O)C[C@]12C [alphadolone, 21-acetoxy-3alpha-hydroxy-5alpha-pregnane-11, 20-dione]
sedation (rotarod run time) later than 1 hour after injection ([3]; alphadolone 250 mg/kg): no sedation | sedation (rotarod run time) at 1 hour after injection [3, 10]: small but significant amount of sedation | antinociceptive effects in the TFL test [6]: no antinociceptive effects | antinociception [4]: causes antinociceptive effects | sedation [4]: without sedation | sedation observed during the course of the tolerance experiment ([7]; sc emulsions with morphine emulsion, alphadolone 250 mg/kg/day, alphaxalone 80 mg/kg/day): no overt signs of sedation | post treatment TFL values (6.4 mg/kg ip morphine, day 3) compared with vehicle treated controls ([7]; two days sc morphine emulsion plus sc emulsion of alphadolone 250 mg/kg/day or alphaxalone 80 mg/kg/day, Students t test): statistically significant difference | potentiation of morphine TFL effects [8]: potentiate morphine TFL effects | TFL response, day 3 (post tolerance), morphine co administered with alphadolone ([1]; 6.4 mg/kg morphine ip plus alphadolone 10 mg/kg after two days morphine emulsion, mean SEM, n=9): 78.6 9.8 % MPE | day 3 response compared with day 1 response before tolerance ([1]; morphine 6.4 mg/kg ip co administered with alphadolone 10 mg/kg, p>0.05 one way ANOVA): equal to that produced on day 1 | loss of consciousness / looking sedated after the injection [9]: did not cause any rat to lose consciousness or in any way to look sedated | time by which nociceptive threshold (ECT) was significantly increased ([9]; n=10): one | time nociceptive threshold (ECT) remained elevated ([9]; n=10, readings up to 44 hours): 24 h

CC(=O)[C@H]1CC[C@H]2[C@@H]3CC[C@H]4C[C@H](O)CC[C@]4(C)[C@H]3CC[C@]12C [allopregnanolone]
prevention of morphine tolerance [2]: positive results

CC(=O)[C@H]1CC[C@H]2[C@@H]3CCC4=CC(=O)CC[C@]4(C)[C@H]3CC[C@]12C [progesterone]
prevention of morphine tolerance [2]: positive results
